Patent publication US20100286145A1, “ISOPHTHALAMIDE DERIVATIVES INHIBITING BETA-SECRETASE ACTIVITY” (CoMentis, Inc., priority 2007, published 2010)

Biological target: memapsin 2 (Homo sapiens, UniProt P56817)
Experiment: Inhibition of memapsin 2 beta-secretase activity (fluorogenic substrate FS-2)
Assay type: biochemical
Settings: memapsin 2, pH 4, 37° C., 20 minutes pre-incubation; read-out: M2Ki
How it was run: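 Memapsin 2 pre-incubated 20 min with compound at pH 4, 37° C, then FS-2 substrate (MCA-SEVNLDAEFK-DNP, APP Swedish cleavage site) added. Rate of fluorescence increase compared with uninhibited controls, fitted to a tight-binding inhibition model.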

memapsin 2, sequence (P56817 46-501): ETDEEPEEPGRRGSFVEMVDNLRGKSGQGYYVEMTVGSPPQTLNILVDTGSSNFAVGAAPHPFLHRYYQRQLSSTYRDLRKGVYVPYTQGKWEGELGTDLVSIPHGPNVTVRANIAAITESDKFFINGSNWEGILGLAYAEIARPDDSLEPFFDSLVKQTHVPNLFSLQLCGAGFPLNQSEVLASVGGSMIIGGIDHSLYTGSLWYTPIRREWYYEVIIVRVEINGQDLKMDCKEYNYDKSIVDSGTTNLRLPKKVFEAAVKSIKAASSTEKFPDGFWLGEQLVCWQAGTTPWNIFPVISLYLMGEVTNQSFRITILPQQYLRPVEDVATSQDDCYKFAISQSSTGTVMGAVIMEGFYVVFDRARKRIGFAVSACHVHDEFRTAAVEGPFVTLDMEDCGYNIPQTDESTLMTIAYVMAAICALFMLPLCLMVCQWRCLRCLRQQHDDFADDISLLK

| SMILES | Ki |
| --- | --- |
| Cc1csc(CNC(=O)c2cccc(C(=O)N[C@@H](Cc3ccccc3)[C@H](O)CNCc3ccc(CS(C)(=O)=O)c(C)n3)c2)n1 [Compound 101, N1-((2S,3R)-3-hydroxy-4-((6-methyl-5-(methylsulfonylmethyl)pyridin-2-yl)methylamino)-1-phenylbutan-2-yl)-N3-((4-methylthiazol-2-yl)methyl)isophthalamide] | > 501 nM |
| COC(=O)[C@H](CO)NC(=O)c1cc(C(=O)N[C@@H](Cc2ccccc2)[C@H](O)CNCc2cccc(OC)c2)cc(C(=O)N(C)Cc2nc(C)cs2)c1 [Compound 62, (S)-methyl 3-hydroxy-2-(3-((2S,3R)-3-hydroxy-4-(3-methoxybenzylamino)-1-phenylbutan-2-ylcarbamoyl)-5-(methyl((4-methylthiazol-2-yl)methyl)carbamoyl)benzamido)propanoate] | < 300 nM |
| Cc1csc(CN(C)C(=O)c2cccc(C(=O)N[C@H](Cc3ccccc3)[C@@H](O)CNCc3cncc(C(C)C)c3)c2)n1 [Compound 128, N1-((2R,3S)-3-hydroxy-4-((5-isopropylpyridin-3-yl)methylamino)-1-phenylbutan-2-yl)-N3-methyl-N3-((4-methylthiazol-2-yl)methyl)isophthalamide] | > 501 nM |
| COc1cccc(CNC[C@@H](O)[C@H](Cc2ccccc2)NC(=O)c2cccc(C(=O)N(C)Cc3ccco3)c2)c1 [Compound 14, N1-(furan-2-ylmethyl)-N3-((2S,3R)-3-hydroxy-4-(3-methoxybenzylamino)-1-phenylbutan-2-yl)-N1-methylisophthalamide] | > 501 nM |
| COc1cccc(CNC[C@@H](O)[C@H](Cc2ccccc2)NC(=O)c2cccc(C(=O)N(C)Cc3cccc(C)n3)c2)c1 [Compound 108, N1-((2S,3R)-3-hydroxy-4-(3-methoxybenzylamino)-1-phenylbutan-2-yl)-N3-methyl-N3-((6-methylpyridin-2-yl)methyl)isophthalamide] | 301 to 500 nM |
| C[C@@H](NC(=O)c1cc(C(=O)N[C@@H](Cc2ccccc2)[C@H](O)CNCc2cc(C(C)(C)C)ccc2O[Si](C)(C)C(C)(C)C)cc(N(C)S(C)(=O)=O)c1)c1ccccc1 [Compound 109, N1-((2S,3R)-4-(5-tert-butyl-2-(tert-butyldimethylsilyloxy)benzylamino)-3-hydroxy-1-phenylbutan-2-yl)-5-(N-methylmethylsulfonamido)-N3-((R)-1-phenylethyl)isophthalamide] | < 300 nM |
| COC(=O)c1ccc(CNC[C@@H](O)[C@H](Cc2ccccc2)NC(=O)c2cccc(C(=O)N(C)Cc3nc(C)cs3)c2)nc1C [Compound 36, methyl 6-(((2R,3S)-2-hydroxy-3-(3-(methyl((4-methylthiazol-2-yl)methyl)carbamoyl)benzamido)-4-phenylbutylamino)methyl)-2-methylnicotinate] | > 501 nM |
| Cc1csc(CN(C)C(=O)c2cccc(C(=O)N[C@@H](Cc3ccccc3)[C@H](O)CNCc3cccc4ccccc34)c2)n1 [Compound 35, N1-((2S,3R)-3-hydroxy-4-(naphthalen-1-ylmethylamino)-1-phenylbutan-2-yl)-N3-methyl-N3-((4-methylthiazol-2-yl)methyl)isophthalamide] | 301 to 500 nM |
| CNc1cc(C(=O)N[C@@H](Cc2ccccc2)[C@H](O)CNCc2cccc(OC)c2)cc(C(=O)N(C)Cc2nc(C)cs2)c1 [Compound 76, N1-((2S,3R)-3-hydroxy-4-(3-methoxybenzylamino)-1-phenylbutan-2-yl)-N3-methyl-5-(methylamino)-N3-((4-methylthiazol-2-yl)methyl)isophthalamide] | < 300 nM |
| CCCN(Cc1nc(C)cs1)C(=O)c1cc(OC)cc(C(=O)N[C@@H](Cc2ccccc2)[C@H](O)CNCc2cccc(OC)c2)c1 [Compound 20, N1-((2S,3R)-3-hydroxy-4-(3-methoxybenzylamino)-1-phenylbutan-2-yl)-5-methoxy-N3-((4-methylthiazol-2-yl)methyl)-N3-propylisophthalamide] | < 300 nM |
| COc1cccc(CNC[C@@H](O)[C@H](Cc2ccccc2)NC(=O)c2cc(OC)cc(C(=O)N(CCO)Cc3nc(C)cs3)c2)c1 [Compound 57, N1-((2S,3R)-3-hydroxy-4-(3-methoxybenzylamino)-1-phenylbutan-2-yl)-N3-(2-hydroxyethyl)-5-methoxy-N3-((4-methylthiazol-2-yl)methyl)isophthalamide] | < 300 nM |

The next lines start with the values.

| Ki | SMILES |
| --- | --- |
| < 300 nM | COCCn1ncc(CNC[C@@H](O)[C@H](Cc2ccccc2)NC(=O)c2cc(C(=O)N[C@H](C)c3ccccc3)cc(N(C)S(C)(=O)=O)c2)c1C [Compound 131, N1-((2S,3R)-3-hydroxy-4-((1-(2-methoxyethyl)-5-methyl-1H-pyrazol-4-yl)methylamino)-1-phenylbutan-2-yl)-5-(N-methylmethylsulfonamido)-N3-((R)-1-phenylethyl)isophthalamide] |
| < 300 nM | COc1cccc(CNC[C@@H](O)[C@H](Cc2ccccc2)NC(=O)c2cc(C(=O)N(C)Cc3nc(C)cs3)cc(-c3ccncc3)c2)c1 [Compound 203, N1-((2S,3R)-3-hydroxy-4-(3-methoxybenzylamino)-1-phenylbutan-2-yl)-N3-methyl-N3-((4-methylthiazol-2-yl)methyl)-5-(pyridin-4-yl)isophthalamide] |
| < 300 nM | CCN(CC)c1cccc(CNC[C@@H](O)[C@H](Cc2ccccc2)NC(=O)c2cccc(C(=O)N(C)Cc3nc(C)cs3)c2)c1 [Compound 152, N1-((2S,3R)-4-(3-(diethylamino)benzylamino)-3-hydroxy-1-phenylbutan-2-yl)-N3-methyl-N3-((4-methylthiazol-2-yl)methyl)isophthalamide] |
| > 501 nM | Cc1csc(CN(C)C(=O)c2cccc(C(=O)N[C@H](Cc3ccccc3)[C@H](O)CNCc3cncc(C(C)C)c3)c2)n1 [Compound 151, N1-((2R,3R)-3-hydroxy-4-((5-isopropylpyridin-3-yl)methylamino)-1-phenylbutan-2-yl)-N3-methyl-N3-((4-methylthiazol-2-yl)methyl)isophthalamide] |

Same assay, conditions: memapsin 2, pH 4, 37° C., fluorogenic substrate FS-2; read-out: M2Ki

| Ki | SMILES |
| --- | --- |
| < 300 nM | COc1cccc([C@H](C)NC[C@@H](O)[C@H](Cc2ccccc2)NC(=O)c2cc(C(=O)N(C)Cc3nc(C)cs3)cc(C(F)F)c2)c1 [Compound 301, 5-(difluoromethyl)-N1-((2S,3R)-3-hydroxy-4-((S)-1-(3-methoxyphenyl)ethylamino)-1-phenylbutan-2-yl)-N3-methyl-N3-((4-methylthiazol-2-yl)methyl)isophthalamide] |
| > 501 nM | Cc1csc(CN(C)C(=O)c2cccc(C(=O)N[C@@H](Cc3ccccc3)[C@H](O)CNS(=O)(=O)c3cccc(C(F)(F)F)c3)c2)n1 [Compound 310, N1-((2S,3R)-3-hydroxy-1-phenyl-4-(3-(trifluoromethyl)phenylsulfonamido)butan-2-yl)-N3-methyl-N3-((4-methylthiazol-2-yl)methyl)isophthalamide] |
| < 300 nM | Cc1csc(CN(C)C(=O)c2cccc(C(=O)N[C@@H](Cc3ccccc3)[C@H](O)CNCc3cc(OC(=O)CN(C)C)cc(C(C)C)c3)c2)n1 [Compound 311, 3-(((2R,3S)-2-hydroxy-3-(3-(methyl((4-methylthiazol-2-yl)methyl)carbamoyl)benzamido)-4-phenylbutylamino)methyl)-5-isopropylphenyl 2-(dimethylamino)acetate] |
| < 300 nM | CC(C)c1cncc(CNC[C@@H](O)[C@H](Cc2ccccc2)NC(=O)c2cccc(C(=O)N(C)Cc3nc(Br)cs3)c2)c1 [Compound 315, N1-((4-bromothiazol-2-yl)methyl)-N3-((2S,3R)-3-hydroxy-4-((5-isopropylpyridin-3-yl)methylamino)-1-phenylbutan-2-yl)-N1-methylisophthalamide] |
| > 501 nM | COc1cccc(CNC[C@@H](O)[C@H](Cc2ccccc2)NC(=O)c2cccc(C(=O)N(C)Cc3nc(C)cs3)c2O)c1 [Compound 296, 2-hydroxy-N1-((2S,3R)-3-hydroxy-4-(3-methoxybenzylamino)-1-phenylbutan-2-yl)-N3-methyl-N3-((4-methylthiazol-2-yl)methyl)isophthalamide] |
| < 300 nM | CN(Cc1nc(C(F)F)cs1)C(=O)c1cccc(C(=O)N[C@@H](Cc2ccccc2)[C@H](O)CNCc2cncc(C(C)(C)F)c2)c1 [Compound 286, N1-((4-(difluoromethyl)thiazol-2-yl)methyl)-N3-((2S,3R)-4-((5-(2-fluoropropan-2-yl)pyridin-3-yl)methylamino)-3-hydroxy-1-phenylbutan-2-yl)-N1-methylisophthalamide] |
| < 300 nM | COc1cccc([C@H](C)NC[C@@H](O)[C@H](Cc2ccccc2)NC(=O)c2cc(C(=O)N(C)Cc3nc(C)cs3)cc(-c3ncco3)c2)c1 [Compound 292, N1-((2S,3R)-3-hydroxy-4-((S)-1-(3-methoxyphenyl)ethylamino)-1-phenylbutan-2-yl)-N3-methyl-N3-((4-methylthiazol-2-yl)methyl)-5-(oxazol-2-yl)isophthalamide] |
| < 300 nM | COc1cccc(CNC[C@@H](O)[C@H](Cc2cc(F)cc(F)c2)NC(=O)c2cc(C(C)=O)cc(C(=O)N[C@H](C)c3ccccc3)c2)c1 [Compound 306, 5-acetyl-N1-((2S,3R)-1-(3,5-difluorophenyl)-3-hydroxy-4-(3-methoxybenzylamino)butan-2-yl)-N3-((R)-1-phenylethyl)isophthalamide] |
| < 300 nM | Cc1csc(CN(C)C(=O)c2cc(C(=O)N[C@@H](Cc3ccccc3)[C@H](O)CNCc3cncc(C(C)C)c3)cc(-c3ccc(N(C)C)cc3)c2)n1 [Compound 298, 4′-(dimethylamino)-N3-((2S,3R)-3-hydroxy-4-((5-isopropylpyridin-3-yl)methylamino)-1-phenylbutan-2-yl)-N5-methyl-N5-((4-methylthiazol-2-yl)methyl)biphenyl-3,5-dicarboxamide] |
| < 300 nM | Cc1csc(CN(C)C(=O)c2cc(C(=O)N[C@@H](Cc3ccccc3)[C@H](O)CNCc3cccc(C(F)(F)F)c3)cc(-c3cccc(N(C)C(=O)OC(C)(C)C)c3)c2)n1 [Compound 317, tert-butyl 3′-((2S,3R)-3-hydroxy-1-phenyl-4-(3-(trifluoromethyl)benzylamino)butan-2-ylcarbamoyl)-5′-(methyl((4-methylthiazol-2-yl)methyl)carbamoyl)biphenyl-3-yl(methyl)carbamate] |
